Data published in BigSolDB 2.1.

O=C1OC(=O)[C@H]2[C@@H]1[C@H]1C=C[C@@H]2C1
solubility (mole fraction)
Settings	278.15 K	283.15 K	288.15 K	293.15 K	298.15 K	303.15 K	308.15 K	313.15 K	318.15 K	323.15 K
in 1,4-dioxane	–	–	0.177	0.199	0.221	0.249	0.273	0.304	0.334	0.37
in DMF	0.209	0.23	0.246	0.267	0.288	0.309	0.337	0.361	0.389	0.419
in NMP	0.257	0.271	0.289	0.305	0.325	0.345	0.371	0.392	0.421	0.448
in acetone	0.13	0.144	0.162	0.179	0.201	0.223	0.251	0.276	0.308	–
in ethanol	0.00405	0.00536	0.00707	0.00927	0.0117	0.0155	0.02	0.0255	0.0321	0.0404
in ethyl acetate	0.0719	0.0849	0.101	0.115	0.134	0.154	0.176	0.201	0.226	0.254
in isopentyl acetate	0.0426	0.0504	0.0608	0.07	0.0818	0.0952	0.107	0.125	0.145	0.165
in isopropyl acetate	0.0541	0.0637	0.0745	0.0862	0.102	0.117	0.133	0.152	0.172	0.196
in methyl acetate	0.0936	0.11	0.127	0.145	0.166	0.189	0.214	0.24	0.269	0.298
in n-butyl acetate	0.0526	0.0614	0.0725	0.0835	0.0969	0.111	0.128	0.145	0.165	0.189
in n-hexyl acetate	0.0377	0.0447	0.0525	0.0614	0.0717	0.0828	0.0955	0.11	0.125	0.144
in n-pentyl acetate	0.0448	0.0526	0.0615	0.0717	0.0833	0.0964	0.111	0.126	0.144	0.165
in n-propyl acetate	0.0616	0.0722	0.0852	0.0981	0.112	0.13	0.148	0.17	0.191	0.215
in octyl acetate	0.0303	0.036	0.0424	0.0496	0.0576	0.0666	0.0774	0.0875	0.1	0.115
